Key:
male C57BL/6 mice = assay: Murine model of endotoxin induced uveitis; assay type: in vivo, mouse; conditions: 0.1 μg intravitreal co-injected with LPS; about 15 hours after endotoxin; FIG. 5
Protocol: The efficacy of locally applied Nalidixic acid as a potential treatment for uveitis was explored. Experimental uveitis was induced in male C57BL/6 mice (n=5 animals per group) by the intravitreal injection of the endotoxin lipopolysaccharide (LPS 0.5 ng/ml) co-injected with either vehicle (phosphate buffered saline) or Nalidixic acid at a final concentration of 0.1 μg into alternate eyes. The other eye acting as control. The inflammatory response in this model is characterised by invasion of inflammatory cells and in particular invasion of neutrophils into the retina peaks at approximately 15 hours after endotoxin treatment at which time the animals were culled. Retinas from the animals were dissected and digested into a single cell suspension. Cell numbers from retinal tissue were measured by fluorescence-activated cell sorting (FACS) analysis.

[1] = test system: Human derived cord mast cells; assay: Inhibition of histamine release from human mast cells; assay type: cell-based; conditions: IgE challenged human cord derived mast cells, 5 min incubation; FIG. 1
Protocol: Protocol: Human derived cord mast cells were cultured using the following method. Commercially available CD34^+ stem cells were cultured for […] in StemSpan (StemCell Technologies, Grenoble, France) serum-free medium supplemented with 100 ng/ml human SCF, 50 ng/ml IL-6 and 1 ng/ml IL-3, and 100 μg/ml penicillin/streptomycin (Peprotech, London, UK). After eight weeks, cells were cultured in StemSpan with 10% FCS. The cells were passaged into new medium every week. Cells were used for experiments between 11 and 18 weeks following confirmation by microscopic examination, c-kit and FcRε1 staining (by FACS), of mast cell morphology. For assessment of drug effects, Nalidixic acid was incubated for 5 min with aliquots of 2×10^5 CDMCs (cord derived mast cells) cultured in 10% FCS medium. A commercially-available enzyme immunoassay was used to detect and quantify histamine released in the supernatant (SPI bio, Strasbourg, France). The assay was conducted following the manufacturer's standard protocols. A standard curve ranging from 0.39-50 nM histamine was prepared using the reagent provided and the optical density was then read within 60 min in a microplate reader (at 405 nm). In some cases, the total cell content of histamine was established by freeze thawing of cells prior to challenge.

phosphatase PP2A = assay: Inhibition of the phosphatase PP2A; assay type: biochemical; conditions: statement in summary, no method or data given
Mice (Balb/C strain) = assay: Murine model of allergic conjunctivitis (ragweed pollen); assay type: in vivo, mouse; conditions: 40 μl of a 2% solution twice daily to the eye
Protocol: Mice (Balb/C strain) were sensitised to ragweed pollen by injection of the extract mixed with alum into the hind paw. A control group was immunised with alum alone. Five animals were used in each group.
Eleven days after the initial immunisation with ragweed pollen extract the mice were challenged daily with Ragweed pollen by application to the eye (150 mg/ml antigen) and dosed twice daily (prior and after challenge with ragweed extract) with either Phosphate buffered saline (PBS, control) or 40 μl of a 2% solution of Nalidixic acid. All applications were to the left eye with the right eye acting as a control.
Conjunctivitis was assessed on the 10th day 1 hour after the final application of the ragweed antigen. This assessment was performed by an operator unaware of the dosing protocol for the animals.
Clinical scores of each group were compared statistically using the non-parametric Kruskal-Wallis test with Dunns multiple comparison test correction applied (FIG. 4).
In addition, histological analysis of sections of the conjunctiva was used to assess the number of migrating eosinophils into the tissue, a key measure of the inflammatory process.

[2] = test system: Human cord derived mast cells; assay: Release of Annexin-A1 from human mast cells (ELISA); assay type: cell-based; conditions: increasing concentrations, conditioned medium, FIG. 3
Protocol: Human cord derived mast cells were cultured using the methodology described in Example 1. Anx-A1 protein levels in conditioned medium were determined by ELISA. Briefly, 96-well flat-bottomed ELISA plates (Greiner, Gloucestershire, UK) were coated with 1 μg anti-Anx-A1 mAb 1B in bicarbonate buffer (pH 9.6) and incubated overnight at 4° C. After washing in the bicarbonate buffer, potentially uncoated sites were blocked with 100 μL of PBS containing 1% BSA for 1 h at room temperature. Sample aliquots (100 μL) or Anx-A1 standard solutions (prepared in 0.1% Tween-20 in PBS; concentration ranging between 10 and 0.001 μg/mL) were added for 1 h at 37° C. After extensive washing in PBS/Tween-20, 100 μL of a polyclonal rabbit anti-human Anx-A1 serum (Zymed, Invitrogen, Paisley, UK; diluted 1:1000 in PBS/Tween-20) was added (1 h at 37° C.) prior to incubation with donkey anti-rabbit 1 gG conjugated to alkaline phosphatase (1:1000; Sigma). The colour was developed by addition of 100 μL p-nitrophenyl phosphate (1 mg/mL in bicarbonate buffer, pH 9.6). Absorbance was read at 405 nm (with a 620-nm reference filter) in a microplate reader (TitertekTM, Vienna, Austria). Anx-A1 levels in the study samples were read against the standard curve and expressed as ng/ml.

[3] = test system: Human cord derived mast cells; assay: Inhibition of Prostaglandin D2 release from human mast cells; assay type: cell-based; conditions: IgE challenged human cord derived mast cells; FIG. 2
Protocol: Human cord derived mast cells were cultured using the methodology described in Example 1. A commercially-available enzyme immunoassay (Cayman Chemical, Michigan, USA) was used to detect and quantify PGD2 released in the supernatant. The assay was conducted following the manufacturer's standard protocols. A standard curve ranging from 78-10,000 pg/ml PGD2 was prepared using the reagent provided and the optical density was then read within 60 min in a microplate reader (at 405 nm).

Structure (SMILES): CCn1cc(C(=O)O)c(=O)c2ccc(C)nc21 [Nalidixic acid]
- invading neutrophils in retinal tissue (FACS) (male C57BL/6 mice): clear reduction in invading neutrophils
- inhibition of the inflammatory mediator histamine (% net histamine release) [1]: dose related inhibition
- inhibition of the phosphatase PP2A (phosphatase PP2A): potent inhibitors
- clinical scores of conjunctivitis (Mice (Balb/C strain); assessed 10th day, 1 hour after final ragweed challenge, FIG. 4): significant attenuation of the development of conjunctivitis
- number of migrating eosinophils in conjunctival tissue (histology) (Mice (Balb/C strain); p<0.001 vs immunised PBS control): no migrating eosinophils
- Annexin-A1 released from human mast cells [2]: increase
- inhibition of the inflammatory prostanoid PGD2 release [3]: dose related inhibition
